Ends that are not written are not given here.
Test system: IFNγ-producing T-cells
Test: IFN-gamma ELISpot on in vitro expanded (IVS) NSCLC patient PBMCs with patient-specific neoantigen peptide pools or individual peptides
Assay type: cell-based, human
Settings: NSCLC patient PBMCs after IVS culture
Procedure: To do so, archival FFPE tumor biopsies and 5-30 ml of peripheral blood were analyzed from 9 patients with metastatic NSCLC undergoing anti-PD(L)1 therapy (Supplementary Table 2: Patient demographics and treatment information for N=9 patients studied in FIGS. 17A-C. Key fields include tumor stage and subtype, anti-PD1 therapy received, and summary of NGS results.). […] The full MS model was applied to prioritize 20 neoepitopes per patient for testing against pre-existing anti-tumor T-cell responses. To focus the analysis on likely CD8 responses, the prioritized peptides were synthesized as 8-11mer minimal epitopes (Methods), and then peripheral blood mononuclear cells (PBMCs) were cultured with the synthesized peptides in short in vitro stimulation (IVS) cultures to expand neoantigen-reactive T-cells (Supplementary Table 3). After two weeks the presence of antigen-specific T-cells was assessed using IFN-gamma ELISpot against the prioritized neoepitopes. In seven patients for whom sufficient PBMCs were available, separate experiments were also performed to fully or partially deconvolve the specific antigens recognized. The results are depicted in FIGS. 17A-C and 18A-21.
FIG. 17A depicts detection of T-cell responses to patient-specific neoantigen peptide pools for nine patients. […]

## GTKKDVDVLK
  T-cell recognition of individual peptide: recognized by CD8 T-cells

From patent US11264117B2, “Neoantigen identification using hotspots” (Gritstone bio, Inc., priority 2017, dated 2022)
